Results from patent publication US20120149708A1, “MODULATORS OF VIRAL TRANSCRIPTION, AND METHODS AND COMPOSITIONS THEREWITH” (George Mason University, priority 2010, published 2012).

Experiments:
Assay type in all cases: cell-based
CEM cells (uninfected) = assay: Cell viability by trypan blue exclusion, 48 hours; settings: for % Inhibition (percent dead cells) CEM: 10 μM, 48 hours
Procedure: (§1) TZM-bl cell lines were grown in Dulbecco's modified Eagle's medium supplemented with fetal bovine serum (FBS) (10%, v/v), 2 mM L-glutamine, and antibiotics (penicillin 100 U/ml, streptomycin […]) (cDMEM). HCT116 WT and HCT116 Dicer−/−cell lines were grown in McCoy's medium supplemented with FBS (10%, v/v), 2mM L-glutamine, and antibiotics (penicillin 100 U/ml, streptomycin […]). CEM, ACH2, Jurkat and U937 cells were grown in RPMI 1640 supplemented with FBS, L-glutamine, and antibiotics (penicillin 100 U/ml, streptomycin […]). All cell lines were maintained at 37° C. in 5% (v/v) CO2.
(§2) ACH2 cells are infected with HIV-1; TZM-bl cells contain a stably-integrated HIV-1 LTR-Luciferase reporter; CEM, Jurkat, and U937 cells are uninfected. Transfections were carried out using Attractene (Qiagen) lipid reagent. Cells were cultured to confluence and pelleted at 4° C. for 15 min at 3,000 rpm. The cell pellets were washed twice with 25 ml of phosphate-buffered saline (PBS) with Ca2+ and Mg2+ (Quality Biological) and centrifuged once more. Cell pellets were resuspended in lysis buffer (50 mM Tris-HCl, pH 7.5, 120 mM NaCl, 5 mM EDTA, 0.5%, v/v, NP-40, 50 mM NaF, 0.2 mM Na3VO4, 1 mM DTT, one complete protease cocktail tablet/50 ml (Roche) and incubated on ice for 20 min, with gentle vortexing every 5 min. Cell lysates were transferred to eppendorf tubes and were centrifuged at 10,000 rpm for 10 min. Supernatants were transferred to a fresh tube where protein concentrations were determined using Bio-Rad protein assay (Bio-Rad, Hercules, Calif.).
(§3) In brief, the inhibition studies were carried out as follows. HIV-1 infected cells ACH2, J1.1, OM10.1, U1 and uninfected CEM, Jurkat T-cells, and U937 were cultured in media. The appropriate inhibitor was added at a concentration of 10 μM. Cells were treated for 48 hours and cell viability was determined using trypan blue exclusion method. Results of such a screen for 19 inhibitors is shown in Table 1 where percent dead cells are indicated each drug tested.
(§4) Again HIV-1 infected and uninfected cells were treated with eighteen Formula I compounds at a drug concentration of 50 nm. Forty-eight hours after treatment, cytotoxicity was determined by trypan blue dye exclusion. Percent inhibition was calculated after obtaining the cell density for each well of the tissue culture plate at the end of 48 hrs.

U937 cells (uninfected) = assay: Cell viability by trypan blue exclusion, 48 hours; settings: for % Inhibition (percent dead cells) U937: 10 μM, 48 hours
Procedure: as §1, §2, §3, §4

[1] = system: HIV-1 infected and uninfected cells; assay: Classification of inhibitors by effect on viability of infected versus uninfected cells; settings: high
Description: The inhibitors were classified into three categories: high, moderate or poor, according to their effect on cellular viability in both HIV-1 infected and uninfected cells. Among the compounds tested in this study, CR8, a purine analog bearing a 2-pyridyl group para to the phenyl ring position 6 of the purine was the most promising drug candidate that killed HIV-1 infected cells, while having little or no effect on the death of uninfected cells.

[2] = system: J1.1 cells (HIV-1 infected); assay: Cell viability by trypan blue exclusion, 48 hours; settings: HIV-1 infected; for % Inhibition (percent dead cells) J1.1: 10 μM, 48 hours
Procedure: as §3, §4

[3] = system: OM10.1 cells (HIV-1 infected); assay: Cell viability by trypan blue exclusion, 48 hours; settings: HIV-1 infected; for % Inhibition (percent dead cells) OM10.1: 10 μM, 48 hours
Procedure: as §3, §4

[4] = system: U1 cells (HIV-1 infected); assay: Cell viability by trypan blue exclusion, 48 hours; settings: HIV-1 infected; for % Inhibition (percent dead cells) U1: 10 μM, 48 hours
Procedure: as §3, §4

[5] = system: ACH2 cells (HIV-1 infected); assay: Cell viability by trypan blue exclusion, 48 hours; settings: HIV-1 infected; for % Inhibition (percent dead cells) ACH2: 10 μM, 48 hours
Procedure: as §1, with “CO2. […]” for “CO2.”
as §3, §4

[6] = system: Jurkat T-cells (uninfected); assay: Cell viability by trypan blue exclusion, 48 hours; settings: for % Inhibition (percent dead cells) Jurkat: 10 μM, 48 hours
Procedure: as §1, with “CO2. […]” for “CO2.”
as §3, §4

HIV-1 LTR-CAT reporter = assay: CAT assay of Tat-mediated transactivation in HCT116 WT and Dicer-/- cells; settings: HCT116 WT (Dicer) versus Dicer-/-; 48 hrs; Flavopiridol, CR8#13, F07#13 100 nm, 9AA 1000 nm
Procedure: Six hours later, the transfected cells were treated with DMSO, Flavopirodol (100 nm), CR8#13 (100 nm), F07#13 (100 nm), and 9AA (1000 nm). Treated cells were incubated in complete DMEM for 48 hrs at 37° C. Cells were harvested and cell extracts were used for CAT analysis. One tenth the amount of HCT116 Dicer−/−extract compared to HCT116 WT was used for CAT analysis. […] The corresponding bar graphs in A and B show values that represent the percentage of conversion of the [14C] chloramphenicol substrate in the CAT assay.
Various cells lines were transfected with the HIV-1 LTRCAT plasmid and pc-Tat to initiate the LTR transcription, and subsequently subjected to various drug treatments. After 48 hrs, cells were lysed and CAT assays were performed as previously described (Guendel et al, 2009; Van Duyne et al, 2008; Easley et al, 2010).
To evaluate the role on microRNA machinery in inhibition of viral transcription activity, HCT116 colon carcinoma cell lines that either contained a WT Dicer (HCT116 WT) or lacked the Dicer protein (HCT116 Dicer-−/−) were first transfected with the HIV-1 LTR-CAT reporter construct. The HIV-1 LTR transcription was activated with pc-Tat and following incubation for 6 hours was treated with DMSO (negative control), Flavopiridol (positive control), CR8#13, F07#13, or 9AA.
Cells were harvested 48 hrs-post treatment and processed for CAT assays (FIGS. 3A and B). […] Based on this observation the inventors hypothesize that the microRNA machinery, Dicer and Drosha, plays an inhibitory role in HIV-1 transcription.

[7] = 10 μM, moderate or poor by effect on viability of infected and uninfected cells

Structure (SMILES)	% Inhibition (percent dead cells) CEM (CEM cells (uninfected))	% Inhibition (percent dead cells) U937 (U937 cells (uninfected))	Selectivity [1, 7]	% Inhibition (percent dead cells) J1.1 [2]	% Inhibition (percent dead cells) OM10.1 [3]	% Inhibition (percent dead cells) U1 [4]	% Inhibition (percent dead cells) ACH2 [5]	% Inhibition (percent dead cells) Jurkat [6]	further results
CN1C(=O)C(=C2Nc3ccccc3C2=NO)c2cccc(Br)c21 [1-methyl-7-bromo-indirubin-3′-oxime]	− (1-5%)	− (1-5%)	Poor	− (1-5%)	− (1-5%)	− (1-5%)	− (1-5%)	− (1-5%)	
Nc1c2ccccc2nc2ccccc12 [9AA]									inhibition of viral transcription (CAT) (HIV-1 LTR-CAT reporter): only moderate inhibitory effects
CC(C)c1cnn2c(NCc3ccc(-c4ccccn4)cc3)nc(N[C@H](CO)C(C)O)nc12 (stereo partly drawn) [MRT3-007, (2R, 3R)-2-(8-isopropyl-4-(4-(pyridine-2-yl)benzylamino)pyrazolo[1,5-α]-1,3,5-triazine-2-ylamino)butane-1,3-diol]									inhibition at 0.05 µM (CEM cells (uninfected); Homo sapiens, CCRF-CEM, 48 h, 50 nM, 48 hrs, read-out: Inhibition Percentage CEM): 25%; inhibition at 0.05 µM (U937 cells (uninfected); Homo sapiens, U-937, 50 nM, 48 hrs, read-out: Inhibition Percentage U937): 25%; Selectivity ([1]; 50 nM, moderate or poor): Moderate; inhibition at 0.05 µM ([2]; Human immunodeficiency virus 1, 48 h, 50 nM, 48 hrs, read-out: Inhibition Percentage J1.1): 50%; inhibition at 0.05 µM ([3]; Human immunodeficiency virus 1, 50 nM, 48 hrs, read-out: Inhibition Percentage OM10.1): 50%; inhibition at 0.05 µM ([4]; Human immunodeficiency virus 1, 48 h, 50 nM, 48 hrs, read-out: Inhibition Percentage U1): 50%; inhibition at 0.05 µM ([5]; Human immunodeficiency virus 1, ACH-2, 48 h, 50 nM, 48 hrs, read-out: Inhibition Percentage ACH2): 50%; inhibition at 0.05 µM ([6]; Homo sapiens, Jurkat, 50 nM, 48 hrs, read-out: Inhibition Percentage Jurkat): 25%
CC[C@H](CO)Nc1nc(NCc2ccc(-c3ccccn3)cc2)n2ncc(C(C)C)c2n1 [MRT3-028, R-2-(8-isopropyl-4-(4-(pyridine-2-yl)benzylamino)pyrazolo[1,5-α]-1,3,5-triazine-2-ylamino)butan-1-ol]									Inhibition Percentage CEM (CEM cells (uninfected); 50 nM, 48 hrs): ++ (~50%); Selectivity ([1]; 50 nM, moderate or poor): High; Inhibition Percentage J1.1 ([2]; 50 nM, 48 hrs): +++ (~75%); Inhibition Percentage U1 ([4]; 50 nM, 48 hrs): + (~25%); Inhibition Percentage ACH2 ([5]; 50 nM, 48 hrs): +++ (~75%)
CCOc1ccnc2[nH]cc(-c3ccnc(N)n3)c12 [Meriolin4]	+ (~25%)	++ (~50%)	High	+++ (~75%)	+++ (~75%)	+++ (~75%)	+++ (~75%)	++ (~50%)	
CCCOc1ccnc2[nH]cc(-c3ccnc(N)n3)c12 [Meriolin5]	− (1-5%)	++ (~50%)	High	++ (~50%)	++++ (~90%)	− (1-5%)	+++ (~75%)	− (1-5%)	
COc1ccnc2[nH]cc(-c3ccnc(N)n3)c12 [Meriolin 3]	− (1-5%)	− (1-5%)	Moderate	+ (~25%)	− (1-5%)	− (1-5%)	++ (~50%)	− (1-5%)	
CC(C)Oc1ccnc2[nH]cc(-c3ccnc(N)n3)c12 [Meriolin 6]	− (1-5%)	++ (~50%)	High	+++ (~75%)	++++ (~90%)	− (1-5%)	+++ (~75%)	− (1-5%)	
CC[C@H](CO)Nc1nc(Nc2cccc(-c3ccccn3)c2)c2ncn(C(C)C)c2n1 [R-DRF053]	− (1-5%)	− (1-5%)	Poor	− (1-5%)	− (1-5%)	− (1-5%)	− (1-5%)	− (1-5%)	
Nc1nccc(-c2c3c(O)ccnc3n3c(N)nccc23)n1 [Variollin B]	− (1-5%)	− (1-5%)	Moderate	+ (~25%)	− (1-5%)	− (1-5%)	++ (~50%)	− (1-5%)	
